Patent US8802705B2, “Pharmaceutical containing PPAR delta agonist” (Senju Pharmaceutical Co., Ltd., priority 2007, dated 2014)

Experiments:
[1] = test system: corneal epithelial defect; test: Promoting action on corneal epithelial wound healing after corneal epithelial scraping (Experimental Example 2); assay type: in vivo, Japanese white rabbits; conditions: rabbit; for ratio of the remaining corneal epithelial defect: mean ± SD, N = 6
Protocol: Male Japanese white rabbits (KITAYAMA LABES Co., Ltd.) were used. The experimental animals were used according to the International Guiding Principles for Biomedical Research involving Animals.
Compound A was used as a test substance. Compound A was dissolved in the following vehicle at 0.0005% or suspended in the following vehicle at 0.005% and used as an instillation.
As a control for the compound A administration group, the above-mentioned vehicle instillation group free of medicament was used.
Animals received intramuscular injection (1 mL/kg) of a Selactal (2% xylazine; Bayer, Ltd.): Ketalar (5% ketamine; DAIICHI SANKYO COMPANY, LIMITED)=1:1 mixture for systemic anesthesia, and oxybuprocaine hydrochloride instillation (Benoxil instillation 0.4%; Santen Pharmaceutical CO., Ltd.) and then the eyeballs were exposed. Using a trephine with a diameter of 10 mm, a mark (diameter 10 mm) was stamped on the corneal epithelium in the central part of the cornea, and the entire corneal epithelial layer within the marked circle was scraped off with a handy rooter under a stereomicroscope. After scraping, the corneal surface was washed with physiological saline (OTSUKA PHARMACEUTICAL FACTORY, INC.), and the corneal epithelial scraping treatment was completed by placing the eyeball back in the orbitae.
Compound A instillation or an instillation vehicle was instilled by 50 μL each time into the treated eye with a micropipette twice a day on the day of corneal epithelial scraping and four times a day from the next day to the completion of the test.
Using the time point when the corneal epithelial scraping was completed in all animals as a test starting time (0 hr), the area of corneal epithelium defect was quantified 40, 48, 56 and 64 hr later, based on which wound healing of the corneal epithelium was evaluated. To be precise, 0.1% fluorescein sodium (Wako Pure Chemical Industries, Ltd.) solution (10 μL) was instilled into the treated eye at each time point, and the anterior ocular segment of the animals was immediately photographed using a slit lamp with a blue filter, whereby the fluorescein-stained corneal epithelial deficient region was recorded. The developed photograph was stored as digital images on a computer, and the area of the fluorescein-stained corneal epithelial defect was measured using an image analysis software (Image-Pro Plus).
The area of the fluorescein-stained corneal epithelial defect measured at each time point was calculated based on the initial value of each animal as 100%, and taken as the ratio of the remaining corneal epithelial defect. The ratio of the remaining corneal epithelial defect at each time point was compared between the vehicle instillation group and compound A instillation group using the t-test. A critical value of less than 5% as a result of the test was judged as significant.

[2] = test system: monkey meibomian gland epithelial cells; test: Effect on cell number increase in meibomian gland epithelial cells (Experimental Example 3, Cell Counting Kit-8); assay type: cell-based; conditions: medium renewed every 48 hr (3 x 48 hr), relative to non-addition group = 100%, mean ± SD, N = 5 or 10
Source text: An eyelid of monkey isolated and stored in D-PBS was transferred to a clean bench, and cell preparation was aseptically performed as follows.
The isolated eyelid was immersed in 80% ethanol for 30 sec, washed three times with D-PBS added with 1% penicillin-streptomycin (Invitrogen), and transferred to a minimum essential medium (MEM; Invitrogen). The adipose tissue and muscular tissue surrounding the meibomian glandular tissue of the eyelid were removed under a stereomicroscope. They were transferred to MEM containing 0.3 U/mL collagenase A (Roche Diagnostics) and 2.4 U/mL dispase II (Roche Diagnostics), and shaken at 37° C. for 4 hr and at 4° C. overnight. The enzyme-treated tissue was set under a stereomicroscope, and the eyelash and eyelid connective tissue were removed to isolate the meibomian glandular tissue. Trypsin-EDTA (4 mL, Invitrogen) was added to the isolated glandular tissue, and the mixture was incubated at 37° C. for 10 min. After incubation, MEM (5 mL) containing 10% FBS (Invitrogen) was added thereto to stop the enzyme reaction, and the tissue constituting cells were dispersed by repeated suction and discharge of the mixture 5 times using an injection syringe equipped with a 21 G injection needle. The cell dispersion was passed through 100 μm and 40 μm nylon filters (Cell Strainer; Falcon), and cell mass and the like contained therein which could not be treated with the enzyme were removed. The cell suspension passed through the filters was collected in a centrifuge tube (50 mL) and centrifuged at room temperature, 1,500 rpm for 5 min. To the cell layers containing the object cells obtained by the centrifugation was added 80 μL of D-PBS containing 0.5% bovine serum albumin (BSA; Sigma-Aldrich), and the cells were sufficiently suspended therein. Anti-Fibroblast Microbeads (Militenyi Biotec, 20 μL) was added thereto, and the mixture was left standing at room temperature for 30 min. After completion of the reaction with an antibody, 2 mL of D-PBS containing 0.5% BSA was added thereto, and the mixture was centrifuged again at room temperature, 1,500 rpm for 5 min. To the cell layers containing the object cells obtained by the centrifugation was added 1 mL of D-PBS containing 0.5% BSA, and the cells were sufficiently suspended therein. The suspension was added dropwise to LD column (Militenyi Biotec) equilibrated in advance with a column washing solution (D-PBS containing 2 mM EDTA (DOJINDO LABORATORIES) and 0.5% BSA). Then, 2 mL of the column washing solution was added dropwise to the LD column. […] The cells collected in the centrifuge tube were centrifuged at room temperature, 1,500 rpm for 5 min, and the supernatant was removed. The sediment was suspended in Defined Keratinocyte Serum Free Medium (5 mL), centrifuged at room temperature, 1,500 rpm for 5 min, and removed the supernatant. Again, the residue was suspended in DK-SFM (3 mL), centrifuged at room temperature and 1,500 rpm for 5 min, and the supernatant was removed. The cells were suspended in DK-SFM (2 mL), and seeded on a 6 well multi-well plate for cell culture, which had been treated with collagen. The seeded cells were cultured in Defined keratinocyte-Serum Free Medium (DK-SFM; Invitrogen, attached Supplement was added as instructed in the preparation protocol), cultured in an incubator (SANYO) set to 37° C., 5% CO2, 95% air, 100% humidity, and the culture medium was exchanged with a new one every 48 hr until the cells became subconfluent.
As a test substance, compound A, [4-[3-[2-(4-trifluoromethyl)phenyl-4-isopropyl-5-thiazolyl]propionyl]-2-methylphenoxy]acetic acid (hereinafter to be referred to as compound B) or [4-[3-[2-(2-hydroxy-4-chlorophenyl)-5-isopropyl-4-oxazolyl]propionyl]-2-methylphenoxy]acetic acid (hereinafter to be referred to as compound C) was used. […]

Cc1cc2c(CCc3sc(-c4ccc(C(F)(F)F)cc4)nc3C(C)C)noc2cc1OCC(=O)O [compound A, [3-[2-[4-isopropyl-2-(4-trifluoromethyl)phenyl-5-thiazolyl]ethyl]-5-methyl-1,2-benzisoxazol-6-yl]oxyacetic acid]
ratio of the remaining corneal epithelial defect ([1]; 0.0005% instillation, 0 hr (initial value)): 100.0 ± 0.0% | ratio of the remaining corneal epithelial defect ([1]; 0.0005% instillation, 40 hr later, initial value = 100%): 24.8 ± 2.7% | ratio of the remaining corneal epithelial defect ([1]; 0.0005% instillation, 48 hr later, initial value = 100%): 11.8 ± 2.9 % | ratio of the remaining corneal epithelial defect ([1]; 0.0005% instillation, 56 hr later, initial value = 100%): 3.8 ± 2.8% | ratio of the remaining corneal epithelial defect ([1]; 0.0005% instillation, 64 hr later, initial value = 100%): 0.8 ± 1.4% | ratio of the remaining corneal epithelial defect ([1]; 0.005% instillation, 0 hr (initial value)): 100.0 ± 0.0% | ratio of the remaining corneal epithelial defect ([1]; 0.005% instillation, 40 hr later, initial value = 100%): 18.6 ± 8.0 % | ratio of the remaining corneal epithelial defect ([1]; 0.005% instillation, 48 hr later, initial value = 100%): 9.1 ± 6.4 % | ratio of the remaining corneal epithelial defect ([1]; 0.005% instillation, 56 hr later, initial value = 100%): 3.4 ± 3.7% | ratio of the remaining corneal epithelial defect ([1]; 0.005% instillation, 64 hr later, initial value = 100%): 0.9 ± 1.3% | effect on wound healing of corneal epithelial defect (in words) ([1]; instillation 0.0005% or 0.005%, conclusion of the test): promotes wound healing of corneal epithelial defect | cell number increase ratio ([2]; 10^−6 M): 189.8 ± 13.1% | cell number increase ratio ([2]; 10^−7 M): 177.1 ± 9.7% | cell number increase ratio ([2]; 10^−8 M): 175.3 ± 9.0%
